In ChEMBL document CHEMBL1145684, “New Guaiane Metabolites from the Caribbean Gorgonian Coral, Pseudopterogorgia americana” (J Nat Prod, 1997):
Converted amounts (≈) assume the structure as drawn.

Tests used:
[1] = tested on: MOLT-4; assay: Cytotoxicity against human MOLT4 cells; format: functional, cell-based
[2] = tested on: HeLa; assay: Cytotoxicity against human HeLa cells; format: functional; settings: read-out: ED50 (the source's name)
[3] = Cytotoxicity against chinese hamster CHOK1 cells; format: cell-based, Cricetulus griseus; settings: CHO-K1 cells, read-out: ED50 (the source's name)
[4] = tested on: KM12; assay: Cytotoxicity against human KM12 cells; format: functional, cell-based

Structure (SMILES) | IC50 [1] [µg/mL] | EC50 [2] [µg/mL] | CC50 [3] [µg/mL] | IC50 [4] [µg/mL]
CO[C@]12C[C@@H](C)[C@]34O[C@H]3C[C@@]3(C)O[C@@]43CC1=C(C)C(=O)O2 [METHOXYAMERICANOLIDE A] | 0.1 (≈ 0.342 µM) |  |  | 
CC1=C2CC3=C(C)C(=O)O[C@H]3C[C@@H](C)[C@@H]2CC1 [AMERICANOLIDE D] |  | 30 (≈ 129 µM) | 100 (≈ 430 µM) | 0.1 (≈ 0.43 µM)
